The values below come from patent US5051419A, “Prevention or elimination of mycoplasma contamination of animal or plant cell cultures” (Dainippon Pharmaceutical Co., Ltd., priority 1988, dated 1991).

≈ marks a conversion by molar mass, not a printed value.

Assay [1] deals with M. hyorhinis BST7. Kind of assay: Anti-mycoplasmal activity (MIC), agar-dilution method. It counts as cell-based, Mycoplasma hyorhinis. Conditions: Mesomycoplasma hyorhinis; agar dilution; M. hyorhinis BST7; read-out: MIC. On the procedure:
(§1) The minimum growth inhibitory concentrations (MIC; μg/ml) of the test chemicals were measured by the agar-dilution method.
(§2) (1) Preparation of a mycoplasma suspension for inoculation
(§3) A stored frozen suspension of mycoplasma (0.2 to 0.3 ml) was inoculated in 2 to 3 ml of a preculture medium to be described later. It was serially diluted tenfold until the dilution ratio reached 10,000 times. These diluted solutions were cultivated at 37° C. for 2 to 7 days. A culture having the highest dilution ratio was selected from those cultures in which a color change of the media was noted as a result of mycoplasma growth. It was diluted to 100 times with the preculture medium to prepare a mycoplasma suspension for inoculation.
(§4) The following preculture media were used.
For Mycoplasma hyorhinis, a liquid medium (pH 7.8) for isolation of Mycoplasma hyorhinis [Journal of the Japan Veterinary Medical Association,32, 34-38 (1979)] was used.
(§5) (2) Preparation of agar plates containing the test chemicals
(§6) A 1,000 μg/ml aqueous solution of each test chemical was prepared (a difficultly-soluble chemical was dissolved by adding an equimolar amount of sodium hydroxide; the same applies hereinafter). The solution was used as a base solution and its twofold serial dilutions were prepared. The diluted solutions were pipetted on plastic petri dishes each in an amount of 1 ml. The Chanock agar medium (for Mycoplasma hyorhinis, 0.5% mucin was further added) described at page 9 of the above cited "Procedures for Isolation and Identification of Human, Animal and Plant Mycoplasmas" was heated and kept at 55° C. and put in an amount of 9 ml in each of the petri dishes containing the test chemicals and fully mixed with the test chemicals to prepare agar plates containing the test chemicals.
(§7) The mycoplasma suspension for inoculation prepared by the procedure described in section (1) was inoculated in an amount of about 3 microliters on each of the chemical-containing agar plates by means of a Cathra-replicator (3 mm pin). The plates on which Mycoplasma pneumoniae, Mycoplasma arginini, and Acholeplasma laidlawii and Mycoplasma hyorhinis were inoculated were tightly packed in a plastic bag together with the plasic petri dishes including water-immersed absorbent cotton. Mycoplasma pneumoniae was aerobically cultivated at 37° C. under highly humid conditions for 7 days; and Mycoplasma arginini and Acholeplasma laidlawii, for 2 days. The other mycoplasma species were cultivated anaerobically for 2 days by using a GasPak anaerobic system (BBL). After the cultivation, growth of mycoplasma were observed under an OLYMPUS microscope (20-100 X). The lowest concentration of the test chemical at which no growth of mycoplasma was noted is defined as MIC.

The test system of assay [2] is A. laidlawii PG-8. Kind of assay: Activity of eliminating artificially contaminated mycoplasma from L-929 cells. It counts as cell-based, Acholeplasma laidlawii. On the procedure:
Animal cells, experimentally contaminated by mycoplasma, were cultivated for 4 days in a medium containing the test chemical and then sub-cultivated in a medium to which the test chemical was not added in order to determine whether the mycoplasma re-grew (re-contamination).
(1) Preparation of mycoplasma-contaminated cells
The mycoplasmas described in Table 3 were each pre-cultivated as in Test Example 1, (1). Two milliliters of the cultures were centifuged at 1,500×g for 30 minutes to separate the mycoplasmas. The isolated mycoplasmas were suspended in 2 ml of 10%-FBS-MEM medium (Eagle's minimum essential medium supplemented with 10% fetal bovine serum and 100 U/ml of penicillin G).
Separately, mouse fibroblast cells L-929 was suspended in 10%-FBS-MEM medium so that their density became 2.5×10^4 /ml. Four milliliters of the suspension was put in a petri dish (diameter 6 cm) for tissue culture including two circular cover glasses (diameter 1.8 cm), and then 1 ml of the mycoplasma suspension described above was added. The mixture was incubated at 37° C. in 5% CO2 humidified atmosphere for 3 days, and then sub-cultivated twice in order to obtain mycoplasma-contaminated cells. Mycoplasma-contamination was confirmed by the highly specific DNA-fluorochromic staining method (the above cited "Procedures for Isolation and identification of Human, Animal and Plant Mycoplasmas", pages 95-97).
(2) Experiment of eliminating mycoplasma contamination
Mycoplasma-contaminated L-929 cells were cultivated as described in the preceding section. A 1,000 μg/ml aqueous solution of a test chemical was prepared, and diluted to predetermined concentrations with Eagle's minimum essential medium. The diluted solutions were added to the culture medium. Two petri dishes were used for each concentration of the test chemical, and two circular cover glasses were put in one of them for examination of mycoplasma. No cover glass was put in the other petri dish, and it was used for subcultivation. Cultivation in the test chemical-containing medium was carried out for 4 days, and thereafter, the cultivation was continued for 3 weeks in a drug-free medium. Medium replacement was effected every 3 to 4 days, and subcultivation was carried out once a week. Examination for mycoplasma contamination was performed on the 4th and 7th days, and thereafter every week. The mycoplasmas were detected by the highly specific DNA-fluorochromic staining method.

Assay [3] relates to mycoplasma. Put plainly: Anti-mycoplasmal activity (MIC, MMC), liquid dilution method, all species of Table 2 together. It is filed as cell-based. The following applies: in words. On the procedure: The minimum growth inhibitory concentration (MIC, μg/ml) and minimum mycoplasmacidal concentration (MMC, μg/ml) of test chemicals were measured by the liquid dilution method. The method of measuring MIC in this example differs from that used in Test Example 1.
A 1,000 μg/ml aqueous solution of a test chemical was prepared, and diluted to 5 times with a preculture medium. The dilution (200 μg/ml) was serially diluted twofold with the same medium in a 8-well reservoir. Fifty microliters of each diluted solution was distributed in the wells of a microplate. A well to which no test chemical was added was used as a control.
A mycoplasma suspension for inoculation prepared as in Test Example 1 was pipetted in an amount of 50 microliters to each of the wells. The microplates were sealed by a plate seal, shaken by a micromixer, and cultivated at 37° C. for 5 days. […] At this time, 3 microliters of the liquid culture was inoculated in drug-free Chanock agar medium by using a Cathra-replicator. The liquid culture and the agar medium were further cultivated at 37° C. for 3 days (anaerobically in the case of M. orale, and aerobically in the case of A. laidlawii and M. arginini). MIC and MMC were determined from the results of observation on the 5th day. MIC was defined as the lowest concentration of the test chemical at which growth of mycoplasma in the drug-containing liquid medium was not noted, and MMC, as that in the drug-free agar medium.

Assay [4] relates to M. salivarium PG20. Kind of assay: Anti-mycoplasmal activity (MIC), agar-dilution method. It is filed as cell-based, Mycoplasma salivarium. Conditions: Metamycoplasma salivarium; agar dilution; M. salivarium PG20; read-out: MIC. On the procedure:
as §1, §2, §3, §4
(§8) For other mycoplasma species, Chanock liquid medium (pH 6.8) containing 0.2% arginine was used.
as §5, §6, §7

In assay [5] the test system is M. arginini G230. The description is as above. It counts as cell-based, Mycoplasma arginini. Conditions: Mycoplasmopsis arginini; agar dilution; M. arginini G230; read-out: MIC. On the procedure: as §1, §2, §3, §4, §8, §5, §6, §7

Broadly, the MIC is the lowest concentration found to suppress growth. On to `CC1CN(c2c(F)c(N)c3c(=O)c(C(=O)O)cn(C4CC4)c3c2F)CCN1` (centres unmarked) [Compound 1], for which the MIC worked out at 0.2 mg/L (≈ 0.529 µM) in assay [1], 0.2 mg/L (≈ 0.529 µM) in assay [4] and 0.1 mg/L (≈ 0.264 µM) in assay [5]. Moreover, the mycoplasma elimination entry in assay [2] (0.2 μg/ml, day 0) is listed as “+”; in assay [2] (0.2 μg/ml, day 4), “+”; in assay [2] (0.2 μg/ml, day 7), “+”; in assay [2] (0.2 μg/ml, day 14), “+”; in assay [2] (0.2 μg/ml, day 28) it was “+”; in assay [2] (0.39 μg/ml, day 0), “+”. In addition, the mycoplasma elimination entry in assay [2] (0.39 μg/ml, day 4) is given as “-”; in assay [2] (0.39 μg/ml, day 7), “-”; in assay [2] (0.39 μg/ml, day 14), “-”; in assay [2] (0.39 μg/ml, day 28), “-”. In addition, the “MIC compared with MMC” value in assay [3] (Table 2) is “identical with their MMC values”. Further, in assay [3] (Table 2), the “mode of action at the MIC” value is given as “act mycoplasmacidally at the MICs”.

Take `CN(C)c1ccc(O)c2c1C[C@H]1C[C@H]3[C@H](N(C)C)C(O)=C(C(N)=O)C(=O)[C@@]3(O)C(O)=C1C2=O` [Compound 3, minocycline]: the figures for the MIC in assay [1], in assay [4] and in assay [5] were 0.1 mg/L (≈ 0.219 µM), 0.1 mg/L (≈ 0.219 µM) and 0.39 mg/L (≈ 0.852 µM), respectively. The mycoplasma elimination result was “+” in assay [2] (12.5 μg/ml, day 0); “-” in assay [2] (12.5 μg/ml, day 4); “+” in assay [2] (12.5 μg/ml, day 7); “+” in assay [2] (12.5 μg/ml, day 14); “+” in assay [2] (12.5 μg/ml, day 28). Moreover, in assay [3] (Table 2), the “mode of action at the MIC” value is “acts bacteriostatically, and not mycoplasmacidally, at its MIC”.

On to `NCC1CN(c2c(F)c(N)c3c(=O)c(C(=O)O)cn(C4CC4)c3c2F)CCO1` (centres unmarked) [Compound A, 5-amino-7-(2-aminomethylmorpholino)-1-cyclopropyl-6,8-difluoro-1,4-dihydro-4-oxoquinoline-3-carboxylic acid], for which the MIC worked out at 0.05 mg/L (≈ 0.127 µM) in assay [1], 0.1 mg/L (≈ 0.254 µM) in assay [4] and 0.05 mg/L (≈ 0.127 µM) in assay [5]. In addition, the mycoplasma elimination result is reported as “+” in assay [2] (0.1 μg/ml, day 0); “-” in assay [2] (0.1 μg/ml, day 4); “+” in assay [2] (0.1 μg/ml, day 7); “+” in assay [2] (0.1 μg/ml, day 14); “+” in assay [2] (0.1 μg/ml, day 28); “+” in assay [2] (0.2 μg/ml, day 0). Moreover, the mycoplasma elimination entry in assay [2] (0.2 μg/ml, day 4) is reported as “-”; in assay [2] (0.2 μg/ml, day 7) it was “-”; in assay [2] (0.2 μg/ml, day 14), “-”; in assay [2] (0.2 μg/ml, day 28), “-”. In addition, in assay [3] (Table 2), the “MIC compared with MMC” value is on record as “identical with their MMC values”. Also, the “anti-mycoplasmal activity compared with control compounds” value in assay [3] (Table 2) is “better than those of the control compounds”. In addition, the “mode of action at the MIC” value in assay [3] (Table 2) was “act mycoplasmacidally at the MICs”. Besides, in assay [3] (summary), the “mycoplasmacidal activity, overall” value is reported as “excellent mycoplasmacidal activity”.
